Measured values as given in US20250195521A1 (Revolution Medicines, Inc., priority 2020, published 2025).
Like-named read-outs stand apart in the source and are kept apart here.

How the values were obtained:
[1] = molecular target: KRAS G12C (Homo sapiens (Human), UniProt P01116+P62937, G12C); test: Ras-Raf disruption/FRET/MOA assay, KRAS G12C; type: biochemical
Procedure, shortened: (§1)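 Measured by TR-FRET: a decrease relative to DMSO indicates disruption of GMPPNP-Ras binding to BRAF^RBD, mediated by Cyclophilin A (25 μM). Compound was tested as a dilution series up to 30 μM with 3 h preincubation at 25° C.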

[2] = molecular target: KRAS G12V (Homo sapiens (Human), UniProt P01116+P62937, G12V); test: Ras-Raf disruption/FRET/MOA assay, KRAS G12V; type: biochemical
Procedure, shortened: as §1

[3] = tested on: AsPC-1 (K-Ras G12D); test: CellTiter-Glo cell viability assay, AsPC-1; type: cell-based, human; settings: Homo sapiens, ASPC1, 120 h, read-out: AsPC-1 Cell Viability IC50
Procedure, shortened: (§2)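 Four-parameter logistic fits were applied to luminescence data normalized against DMSO-treated wells. Readings were taken on day 5 following direct compound addition, after roughly 30 minutes at room temperature.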

[4] = molecular target: KRAS G12S (Homo sapiens (Human), UniProt P01116+P62937, G12S); test: Ras-Raf disruption/FRET/MOA assay, KRAS G12S; type: biochemical
Procedure, shortened: as §1

[5] = molecular target: KRAS WT (Homo sapiens (Human), UniProt P01116+P62937); test: Ras-Raf disruption/FRET/MOA assay, KRAS WT; type: biochemical
Procedure, shortened: as §1

[6] = molecular target: KRAS G13D (Homo sapiens (Human), UniProt P01116+P62937, G13D); test: Ras-Raf disruption/FRET/MOA assay, KRAS G13D; type: biochemical
Procedure, shortened: as §1

[7] = molecular target: NRAS G12C (Homo sapiens (Human), UniProt P01111+P62937, G12C); test: Ras-Raf disruption/FRET/MOA assay, NRAS G12C; type: biochemical
Procedure, shortened: as §1

[8] = molecular target: KRAS G13C (Homo sapiens (Human), UniProt P01116+P62937, G13C); test: Ras-Raf disruption/FRET/MOA assay, KRAS G13C; type: biochemical
Procedure, shortened: as §1

[9] = molecular target: KRAS G12D (Homo sapiens (Human), UniProt P01116+P62937, G12D); test: Ras-Raf disruption/FRET/MOA assay, KRAS G12D; type: biochemical
Procedure, shortened: as §1

[10] = tested on: NCI-H358 (K-Ras G12C); test: CellTiter-Glo cell viability assay, H358; type: cell-based, human; settings: Homo sapiens, NCI-H358, 120 h
Procedure, shortened: as §2

[11] = tested on: AsPC-1 (K-Ras G12D); test: Potency assay: pERK; type: cell-based, human; settings: Homo sapiens
Procedure, shortened: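 pERK decrease measured after 4 h compound treatment at 37 °C (10 three-fold dilutions, duplicate wells), by either fixed-cell In-Cell Western with DRAQ5 counterstain or AlphaLISA on lysates. Signal fitted against log concentration with a four-parameter model to give IC50.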

[12] = read-out: H358 Cell Viability IC50, K-Ras G12C, 5-day treatment
[13] = read-out: KRAS G12C FRET data IC50
[14] = read-out: NRAS G12C FRET data IC50

Chain of KRAS WT (P01116 other isoform, or with tags, fused parts or gaps): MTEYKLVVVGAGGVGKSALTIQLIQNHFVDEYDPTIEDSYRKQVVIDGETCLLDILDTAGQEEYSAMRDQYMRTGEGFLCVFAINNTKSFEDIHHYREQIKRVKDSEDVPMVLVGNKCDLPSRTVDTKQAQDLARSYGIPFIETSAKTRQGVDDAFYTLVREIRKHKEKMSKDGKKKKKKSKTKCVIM
Chain of KRAS WT (P62937 whole entry): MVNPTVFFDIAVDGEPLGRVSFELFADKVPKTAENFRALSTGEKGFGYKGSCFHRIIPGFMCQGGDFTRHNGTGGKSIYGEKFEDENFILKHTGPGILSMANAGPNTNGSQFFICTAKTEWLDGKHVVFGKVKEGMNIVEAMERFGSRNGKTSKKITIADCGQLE
Chain of KRAS G12D (P01116 other isoform, or with tags, fused parts or gaps G12D): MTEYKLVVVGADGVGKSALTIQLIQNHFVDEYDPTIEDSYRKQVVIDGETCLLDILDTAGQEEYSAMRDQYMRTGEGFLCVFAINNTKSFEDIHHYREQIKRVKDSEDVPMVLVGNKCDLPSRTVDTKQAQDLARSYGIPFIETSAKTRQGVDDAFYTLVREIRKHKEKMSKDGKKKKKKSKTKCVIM
Chain of KRAS G12D (P62937 whole entry): as the sequence (P62937 whole entry) above
Chain of KRAS G13D (P01116 other isoform, or with tags, fused parts or gaps G13D): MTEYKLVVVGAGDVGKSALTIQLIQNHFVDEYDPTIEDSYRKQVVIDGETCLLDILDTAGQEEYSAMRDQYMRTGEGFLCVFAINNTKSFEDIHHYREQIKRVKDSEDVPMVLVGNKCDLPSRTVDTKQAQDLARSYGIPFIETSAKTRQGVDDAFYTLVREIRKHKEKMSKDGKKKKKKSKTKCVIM
Chain of KRAS G13D (P62937 whole entry): as the sequence (P62937 whole entry) above
Chain of NRAS G12C (P01111 whole entry G12C): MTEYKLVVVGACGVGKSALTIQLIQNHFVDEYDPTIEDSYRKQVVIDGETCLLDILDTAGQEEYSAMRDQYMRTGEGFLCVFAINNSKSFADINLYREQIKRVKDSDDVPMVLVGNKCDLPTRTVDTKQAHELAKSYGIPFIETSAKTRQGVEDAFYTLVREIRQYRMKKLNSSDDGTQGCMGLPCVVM
Chain of NRAS G12C (P62937 whole entry): as the sequence (P62937 whole entry) above
Chain of KRAS G12V (P01116 other isoform, or with tags, fused parts or gaps G12V): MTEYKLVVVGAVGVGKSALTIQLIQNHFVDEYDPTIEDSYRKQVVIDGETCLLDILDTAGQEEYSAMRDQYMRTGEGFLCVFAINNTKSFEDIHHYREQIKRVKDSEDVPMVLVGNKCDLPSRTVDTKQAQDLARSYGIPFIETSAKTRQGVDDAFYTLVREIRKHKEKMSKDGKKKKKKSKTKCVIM
Chain of KRAS G12V (P62937 whole entry): as the sequence (P62937 whole entry) above
Chain of KRAS G13C (P01116 other isoform, or with tags, fused parts or gaps G13C): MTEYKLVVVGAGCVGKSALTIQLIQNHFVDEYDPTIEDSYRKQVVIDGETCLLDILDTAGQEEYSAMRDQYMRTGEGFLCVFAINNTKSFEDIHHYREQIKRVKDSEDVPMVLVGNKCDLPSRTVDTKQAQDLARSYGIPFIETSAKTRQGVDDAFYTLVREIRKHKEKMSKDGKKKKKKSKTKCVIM
Chain of KRAS G13C (P62937 whole entry): as the sequence (P62937 whole entry) above
Chain of KRAS G12S (P01116 other isoform, or with tags, fused parts or gaps G12S): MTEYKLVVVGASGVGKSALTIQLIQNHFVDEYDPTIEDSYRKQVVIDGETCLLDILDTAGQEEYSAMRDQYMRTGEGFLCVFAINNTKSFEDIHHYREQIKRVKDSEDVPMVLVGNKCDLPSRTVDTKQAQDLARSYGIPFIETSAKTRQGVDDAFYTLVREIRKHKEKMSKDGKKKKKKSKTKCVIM
Chain of KRAS G12S (P62937 whole entry): as the sequence (P62937 whole entry) above
Chain of KRAS G12C (P01116-2 other isoform, or with tags, fused parts or gaps G12C): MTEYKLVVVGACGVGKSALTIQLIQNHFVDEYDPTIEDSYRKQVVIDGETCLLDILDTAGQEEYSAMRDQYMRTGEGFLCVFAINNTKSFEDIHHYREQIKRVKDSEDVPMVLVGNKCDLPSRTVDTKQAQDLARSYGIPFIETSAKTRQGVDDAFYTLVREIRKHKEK
Chain of KRAS G12C (P62937 whole entry): as the sequence (P62937 whole entry) above

| Compound | IC50 [1] | IC50 [2] | IC50 [3] | IC50 [4] | IC50 [5] | IC50 [6] | IC50 [7] | IC50 [8] | IC50 [9] | IC50 [10, 12] | EC50 ([11]; ASPC1, read-out: pERK EC50) | also measured |
| --- | --- | --- | --- | --- | --- | --- | --- | --- | --- | --- | --- | --- |
| CCn1c(-c2cnccc2COC)c2c3cc(ccc31)-c1cc(O)cc(c1)C[C@H](NC(=O)[C@H](C(C)C)N(C)C(=O)CN(C)C(=O)[C@@H]1N[C@H]1c1ccccc1)C(=O)N1CCC[C@H](N1)C(=O)OCC(C)(C)C2 [Example 11] | 10 to 100 nM | 10 to 100 nM | 1000 to 10000 nM | 10 to 100 nM | 100 to 1000 nM | 100 to 1000 nM | 10 to 100 nM | 10 to 100 nM | 1000 to 10000 nM | 100 to 1000 nM | < 5 µM |  |
| CCn1c(-c2cnccc2COC)c2c3cc(ccc31)-c1cc(O)cc(c1)C[C@H](NC(=O)[C@H](C(C)C)N(C)C(=O)CN(C)C(=O)[C@H]1N[C@@H]1c1ccccc1)C(=O)N1CCC[C@H](N1)C(=O)OCC(C)(C)C2 [Example 12] | 10 to 100 nM | 10 to 100 nM | 100 to 1000 nM | 10 to 100 nM | 10 to 100 nM | 10 to 100 nM | 10 to 100 nM | 10 to 100 nM | 100 to 1000 nM | 100 to 1000 nM | < 5 µM |  |
| CCn1c(-c2cccnc2COC)c2c3cc(ccc31)-c1cc(O)cc(c1)C[C@H](NC(=O)[C@H](C(C)C)N(C)C(=O)CCNC(=O)NCCCl)C(=O)N1CCC[C@H](N1)C(=O)OCC(C)(C)C2 [Example 25, (2S)-2-(3-(3-(2-chloroethyl)ureido)-N-methylpropanamido)-N-((6^3S,4S)-1^1-ethyl-25-hydroxy-1^2-(2-(methoxymethyl)pyridin-3-yl)-10,10-dimethyl-5,7-dioxo-6^1,6^2,6^3,6^4,6^5,6^6-hexahydro-1^1H-8-oxa-1 (5,3)-indola-6 (1,3)-pyridazina-2 (1,3)-benzenacycloundecaphane-4-yl)-3-methylbutanamide] | 1000 to 10000 nM | 1000 to 10000 nM |  | > 10000 nM | 1000 to 10000 nM | 1000 to 10000 nM | > 10000 nM | 1000 to 10000 nM | > 10000 nM | > 10000 nM |  |  |
| CCn1c(-c2cnccc2COC)c2c3cc(ccc31)-c1cc(O)cc(c1)C[C@H](NC(=O)[C@@H](CCNC1=NCCO1)C(C)C)C(=O)N1CCC[C@H](N1)C(=O)OCC(C)(C)C2 [Example 30] |  |  |  |  |  |  |  |  |  |  |  | IC50 [1, 13]: 1000 to 10000 nM; IC50 ([2]; read-out: KRAS G12V FRET IC50): 1000 to 10000 nM; IC50 ([4]; read-out: KRAS G12S FRET IC50): > 10000 nM; IC50 ([5]; read-out: KRAS WT FRET IC50): 1000 to 10000 nM; IC50 ([6]; read-out: KRAS G13D FRET IC50): 1000 to 10000 nM; IC50 [7, 14]: > 10000 nM; IC50 ([8]; read-out: KRAS G13C FRET IC50): > 10000 nM; IC50 ([9]; read-out: KRAS G12D FRET IC50): > 10000 nM; IC50 ([10]; read-out: H358 Cell Viability IC50): 1000 to 10000 nM |
| CCn1c(-c2cnccc2COC)c2c3cc(ccc31)-c1cc(O)cc(c1)C[C@H](NC(=O)[C@H](C(C)C)N(C)C(=O)CN(C)C(=O)[C@H]1N[C@H]1C(=O)OC)C(=O)N1CCC[C@H](N1)C(=O)OCC(C)(C)C2 [Example 51] | 10 to 100 nM | 100 to 1000 nM | > 10000 nM | 100 to 1000 nM | 100 to 1000 nM | 100 to 1000 nM | 100 to 1000 nM | 10 to 100 nM | 100 to 1000 nM |  | < 5 µM |  |
| CCn1c(-c2cnccc2COC)c2c3cc(ccc31)-c1cc(O)cc(c1)C[C@H](NC(=O)[C@H](C(C)C)N(C)C(=O)CN(C)C(=O)[C@H]1N[C@H]1c1ccc(OC)cc1)C(=O)N1CCC[C@H](N1)C(=O)OCC(C)(C)C2 [Example 93] | 10 to 100 nM | 10 to 100 nM | > 10000 nM | 10 to 100 nM | 10 to 100 nM | 100 to 1000 nM | 10 to 100 nM | 10 to 100 nM | 100 to 1000 nM |  | < 5 µM |  |
| CCn1c(-c2cnccc2COC)c2c3cc(ccc31)-c1cc(O)cc(c1)C[C@H](NC(=O)[C@H](C(C)C)N(C)C(=O)CN(C)C(=O)[C@@H]1N[C@H]1c1ccc(OC)cc1)C(=O)N1CCC[C@H](N1)C(=O)OCC(C)(C)C2 [Example 96] | 10 to 100 nM | 10 to 100 nM | 1000 to 10000 nM | 10 to 100 nM | 10 to 100 nM | 100 to 1000 nM | 10 to 100 nM | 10 to 100 nM | 100 to 1000 nM | 1000 to 10000 nM | < 5 µM |  |
| CCn1c(-c2cnccc2COC)c2c3cc(ccc31)-c1cc(O)cc(c1)C[C@H](NC(=O)[C@H](C(C)C)N(C)C(=O)CN(C)C(=O)[C@H]1N[C@@H]1c1ccc(OC)cc1)C(=O)N1CCC[C@H](N1)C(=O)OCC(C)(C)C2 [Example 97] | 10 to 100 nM | 10 to 100 nM | 1000 to 10000 nM | 10 to 100 nM | 10 to 100 nM | 100 to 1000 nM | 10 to 100 nM | 10 to 100 nM | 100 to 1000 nM |  | < 5 µM |  |
| CCn1c(-c2cnccc2COC)c2c3cc(ccc31)-c1cc(O)cc(c1)C[C@H](NC(=O)[C@H](C(C)C)N(C)C(=O)CN(C)C(=O)[C@@H]1N[C@@H]1C1CC1)C(=O)N1CCC[C@H](N1)C(=O)OCC(C)(C)C2 [Example 103] | 10 to 100 nM | 10 to 100 nM | 100 to 1000 nM | 10 to 100 nM | 10 to 100 nM | 100 to 1000 nM | 10 to 100 nM | 10 to 100 nM | 10 to 100 nM | 100 to 1000 nM | < 5 µM |  |
| CCn1c(-c2cnccc2COC)c2c3cc(ccc31)-c1cc(O)cc(c1)C[C@H](NC(=O)[C@H](C(C)C)N(C)C(=O)CN(C)C(=O)[C@H]1N[C@H]1C1CC1)C(=O)N1CCC[C@H](N1)C(=O)OCC(C)(C)C2 [Example 104] | 10 to 100 nM | 100 to 1000 nM | 1000 to 10000 nM | 10 to 100 nM | 100 to 1000 nM | 100 to 1000 nM | 10 to 100 nM | 10 to 100 nM | 100 to 1000 nM |  | < 5 µM |  |
| CCn1c(-c2cnccc2COC)c2c3cc(ccc31)-c1cc(O)cc(c1)C[C@H](NC(=O)[C@H](C(C)C)N(C)C(=O)CN(C)C(=O)[C@@H]1N[C@@H]1C)C(=O)N1CCC[C@H](N1)C(=O)OCC(C)(C)C2 [Example 105] | 10 to 100 nM | 100 to 1000 nM | 1000 to 10000 nM | 10 to 100 nM | 10 to 100 nM | 100 to 1000 nM | 10 to 100 nM | 10 to 100 nM | 100 to 1000 nM |  | < 5 µM |  |
| CCn1c(-c2cccnc2[C@H](C)OC)c2c3cc(ccc31)-c1cc(O)cc(c1)C[C@H](NC(=O)[C@H](C(C)C)N1CCC3(CC(C(=O)[C@H]4CN4)C3)C1=O)C(=O)N1CCC[C@H](N1)C(=O)OCC(C)(C)C2 (some centres unmarked) [Example 115] |  |  |  |  |  |  |  |  |  |  |  | IC50 [1, 13]: < 10 nM; IC50 ([2]; read-out: KRAS G12V FRET IC50): 100 to 1000 nM; IC50 ([3]; K-Ras G12D, 5-day treatment): > 10000 nM; IC50 ([4]; read-out: KRAS G12S FRET IC50): 100 to 1000 nM; IC50 ([5]; read-out: KRAS WT FRET IC50): 10 to 100 nM; IC50 ([6]; read-out: KRAS G13D FRET IC50): 10 to 100 nM; IC50 [7, 14]: < 10 nM; IC50 ([8]; read-out: KRAS G13C FRET IC50): 10 to 100 nM; IC50 ([9]; read-out: KRAS G12D FRET IC50): 100 to 1000 nM |
| CCn1c(-c2cccnc2[C@H](C)OC)c2c3cc(ccc31)-c1cc(O)cc(c1)C[C@H](NC(=O)[C@H](C(C)C)N1CC[C@@]3(CCC(C(=O)[C@@H]4N[C@@H]4C4CC4)C3)C1=O)C(=O)N1CCC[C@H](N1)C(=O)OCC(C)(C)C2 (some centres unmarked) [Example 128] |  |  |  |  |  |  |  |  |  |  |  | IC50 [1, 13]: 10 to 100 nM; IC50 ([2]; read-out: KRAS G12V FRET IC50): 100 to 1000 nM; IC50 ([3]; K-Ras G12D, 5-day treatment): 1000 to 10000 nM; IC50 ([4]; read-out: KRAS G12S FRET IC50): 100 to 1000 nM; IC50 ([5]; read-out: KRAS WT FRET IC50): 100 to 1000 nM; IC50 ([6]; read-out: KRAS G13D FRET IC50): 100 to 1000 nM; IC50 [7, 14]: 10 to 100 nM; IC50 ([8]; read-out: KRAS G13C FRET IC50): 10 to 100 nM; IC50 ([9]; read-out: KRAS G12D FRET IC50): 100 to 1000 nM; EC50 ([11]; ASPC1, AsPC-1 KRAS G12D, read-out: pERK EC50): < 5 µM |
